Source: patent publication US20090170759A1, “NEUROPROTECTIVE PEPTIDES” (priority 2007, published 2009)

Tests used:
[1] = system: rat cerebral cortical cultures; assay: Neurite outgrowth assay (MAP2-FITC immunofluorescence), cortical cultures; assay type: cell-based; settings: figure legends
Text: (§1) Dissociated hippocampal and cortical cell cultures were established from embryonic day 18 rat fetuses as previously described (Mattson et al., 1994). Briefly, fetuses were removed via cesarean section from pregnant moms (Sprague-Dawley) anesthetized with halothane according to the AVMA Panel on Euthanasia. Pups were decapitated and the brains were removed and placed in HEPES-buffered Hank's Balanced Salt solution (HBSS; Gibco). The hippocampi and cortices were dissected out and pooled according to tissue-type. Tissue was trypsinized for 15 min (1 mg/ml trypsin-HBSS; Worthington), rinsed with fresh HBSS, incubated in trypsin inhibitor (1 mg/ml; Sigma) for 5 min, rinsed again with fresh HBSS and then triturated in 1 ml fresh HBSS with a fire-polished glass pipette. Dissociated cells were seeded at 30,000 cells/well onto poly-D-lysine coated 96-well plates (Collaborative BioScience). Each well contained 100 μl of Eagle's Minimal Essential Media (MEM; Gibco) supplemented with 26 mM NaHCO3 (Sigma), 56 mM glucose (Sigma), 15 mM KCl (Sigma), 1 mM sodium pyruvate (Sigma), 1.1 mM L-glutamine (Sigma), 10% (v/v) heat-inactivated fetal bovine serum (Hyclone), and 0.001% gentamicin sulfate (Sigma) (pH 7.4). Cells were allowed to attach for 24 h in a humidified 37° C. 5% CO2 incubator before experimental treatment. The culture media was aspirated and exchanged with fresh media every three days.
(§2) Twenty-four hours after plating, cultures were treated with vehicle (PBS+0.1% BSA), 100 ng of various growth factors (brain derived neurotrophic factor (BDNF; Promega), glial-derived neurotrophic factor (GDNF; Promega), nerve growth factor (NGF; Boehringer Mannheim), basic fibroblast growth factor (bFGF; Boehringer Mannheim), insulin-like growth factor-1 (IGF-1; Boehringer Mannheim), neurotrophin-3 (NT3; Calbiochem), neurotrophin-4 (NT4; Calbiochem), ciliary neurotrophic factor (CNTF; Calbiochem), epidermal growth factor (EGF; Calbiochem), vascular endothelial growth factor (VEGF; Calbiochem)), or rhEPO (prepared same as above; 10 fM-10 nM)). Each treatment condition was run in quadruplicate or octuplicate. On the third day in culture, the media was aspirated off and replaced with fresh media and test compound. At one week in culture, the cells were fixed with 10% phosphate-buffered formalin for 15 min, then rinsed with DPBS (Sigma) and placed in blocking serum for 30 min (horse serum; 1:50 dilution in DPBS; Vector Labs). Cultures were rinsed again with DPBS and then incubated in primary antibody for 2 hr (microtubule-associated protein-2 (MAP-2) is a selective marker for dendritic processes; anti-mouse monoclonal (Chemicon); 1:1000 dilution of MAP-2 in antibody diluent (Zymed)). Negative control wells were incubated in antibody diluent alone. Background signal was determined by blank wells (cell-free) incubated with or without antibody. Cultures were rinsed again with DPBS and then placed in fluorescein for 1 hr (FITC; anti-mouse IgG; rat adsorbed; 1:50 dilution in DPBS; Vector Labs). Cultures were rinsed a final time with DPBS and then the plates were read on a Cytofluor 4000 fluorescence plate reader. Neurite outgrowth was expressed as percent change from control (vehicle; mean fluorescence±SD).
(§3) Dissociated hippocampal and cortical cell cultures were established from embryonic day 18 rat fetuses as previously described (Mattson et al., 1994). Briefly, fetuses were removed via cesarean section from pregnant moms (Sprague-Dawley) anesthetized with halothane according to the AVMA Panel on Euthanasia. Pups were decapitated and the brains were removed and placed in HEPES-buffered Hank's Balanced Salt solution (HBSS; Gibco). The hippocampi and cortices were dissected out and pooled according to tissue-type. […]

rat hippocampal cultures = assay: Neurite outgrowth assay (MAP2-FITC immunofluorescence), hippocampal cultures; assay type: cell-based; settings: for neurite outgrowth in rat hippocampal cultures (in words): figure legends
Text: as §1, §2, §3

Sequence	neurite outgrowth in rat cerebral cortical cultures (in words) [1]	neurite outgrowth in rat hippocampal cultures (in words) (rat hippocampal cultures)	neurite outgrowth increase over vehicle at peak activity, hippocampal cultures (rat hippocampal cultures; Example 4, 10 fM-10 nM tested)
GGTASCHFGPLTWVCKPQGG [EMP-6]	promotes neurite outgrowth	promotes neurite outgrowth	–
GGTYSCFGPLTWVCKPQGG [EMP-27]	promotes neurite outgrowth	promotes neurite outgrowth	–
GGTYSCHFAPLTWVCKPQGG [EMP-9]	promotes neurite outgrowth	promotes neurite outgrowth	–
GGTYSCHFGPLTWVCKPQGG [EMP-1]	promotes neurite outgrowth	promotes neurite outgrowth	–
YCHFGPLTWVC [EMP-23]	promotes neurite outgrowth	promotes neurite outgrowth	43-46%
